According to PMC8875894, “Dabigatran Acylglucuronide, the Major Metabolite of Dabigatran, Shows a Weaker Anticoagulant Effect than Dabigatran” (Pharmaceutics, 2022):
pIC50: −log10 of the molar value.

Biological target: T1, thrombin (Homo sapiens, UniProt P00734)
T1 construct: gene F2
Experiment: thrombin generation assay in human plasma (fluorogenic Z-Gly-Gly-Arg-AMC, AUC); thrombin time prolonged

## Cn1c(CNc2ccc(C(=N)N)cc2)nc2cc(C(=O)N(CCC(=O)O[C@@H]3O[C@H](C(=O)O)[C@@H](O)[C@H](O)[C@H]3O)c3ccccn3)ccc21 [DABG, dabigatran acylglucuronide]
  pIC50: 6.36
